Series [1] addresses T1, StOASS-B (Salmonella typhimurium, UniProt P29848).
T1 construct: made in house; host or cells: E. coli
T1 sequence (P29848 1-303): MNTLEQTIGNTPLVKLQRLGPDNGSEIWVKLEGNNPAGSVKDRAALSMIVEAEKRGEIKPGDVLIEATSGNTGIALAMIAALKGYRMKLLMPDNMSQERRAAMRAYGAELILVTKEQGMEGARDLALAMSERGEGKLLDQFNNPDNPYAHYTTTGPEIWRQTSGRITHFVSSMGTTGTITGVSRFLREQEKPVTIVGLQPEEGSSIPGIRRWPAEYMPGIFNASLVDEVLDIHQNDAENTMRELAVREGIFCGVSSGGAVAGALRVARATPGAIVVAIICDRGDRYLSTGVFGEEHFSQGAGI
Further details: method as in PMID 28821763. Particulars: low affinity active site binder; read-out: Kd for OASS-B; cited from earlier work.

A further series has as its target T2, StOASS-A (Salmonella typhimurium, UniProt P0A1E3).
T2 construct: made in house; host or cells: E. coli
The experiment in a line: Steady-state enzyme activity assay, discontinuous ninhydrin cysteine determination. The settings on record: value in brackets in IC50 column. It counts as biochemical, Salmonella enterica serovar Typhimurium. The procedure:
(§1) StOASS-A and StOASS-B, expressed in E. coli, were purified by metal affinity chromatography as described previously. Proteins were more that 95% pure based on SDS-PAGE analysis (data not shown).
(§2) Enzyme activity under steady-state conditions was measured by a discontinuous method as described previously. Briefly, the reaction was carried out in 100 mM HEPES pH 7.0 in the presence of 6 nM OASS, 60 nM BSA to prevent enzyme adhesion to tube wall, 1 mM OAS (equal to the K m value of this subsrate), 0.6 mM Na2S (a saturating concentration), 1% DMSO and variable concentrations of inhibitor. Reaction was stopped at time intervals by the addition of acetic acid and concentration of cysteine was determined by a modification of the ninhydrin assay. The fractional velocity as a function of inhibitor concentration was determined and IC50 was calculated by the following equation: vi/v0=1/1+(I/IC50) where, v 0 is the reaction velocity in the absence of inhibitor and v i is reaction velocity in the presence of inhibitor at concentration [I].
(§3) For a competitive inhibitor against OAS the IC50 measured under these conditions is about 2⋅K d.

In series [2] the target is T1, StOASS-B. The series is described as above. The series is classed as biochemical. The settings on record: value in brackets in IC50 column. Here is the method:
as §1, §2, §3

The subject of series [3] is Escherichia coli ATCC25922. Nature of the series: Minimal inhibitory concentration (CLSI) in medium with limiting cysteine. Particulars: E. coli ATCC25922, medium with limiting cysteine; data not shown. The series is classed as cell-based. The procedure:
Minimal inhibitory concentration assays were performed according to the CLSI guidelines (Clinical and Laboratory Standards Institute; Performance Standards for Antimicrobial Susceptibility Testing; Twenty-Fourth Informational Supplement; CLSI document M100-S24, CLSI; 2014.). The compounds were dissolved in DMSO to obtain a stock solution 100-fold more concentrated than the desired higher concentration and then 10 serial dilutions were performed. One microliter of each dilution was transferred to the microtiter plate.
Escherichia coli ATCC25922 was grown until log phase on liquid Mueller–Hinton broth at 37 °C in a shaker at 225 rpm. Bacterial suspension was then centrifuged at 2500 rpm for 15 min and diluted with phosphate buffer to obtain a solution with a turbidity of about 0.5 McFarland. Bacterial suspension was further diluted (1:100) with fresh LB 20%. Fifty microliters of the bacterial suspension containing 10^6 CFU/mL were inoculated into each well, to obtain a final concentration of 5 × 10^5 CFU/mL. Each plate contained growth control wells and sterility check wells.
We investigated the ability of the new set of compounds to interfere with bacterial growth.

Series [4] in a line: Solubility limit in the buffer used for activity assays. It counts as physicochemical. The settings on record: aqueous buffer. An excerpt:
It is possible to conclude that expansion of the series towards the para position of the phenyl ring, unless carried out with small groups, is detrimental for the activity of the compounds. […] Even though the carboxylic acid group is essential for the binding to OASS[13] ^, [27] ^, [28], its scarce diffusion across biological membranes is a well-known issue[32] ^, [33]. Therefore, to preserve the key interactions with the target, we carried out the replacement of the carboxylic acid by several isosters (Scheme 2). […] This prompted us to further investigate the mechanism of inhibition of these molecules, since the residual activity at saturating concentrations is significant (about 40 − 50%, Figure 3, panel A). […] This hampers the accurate determination of the inhibition mechanism due to limitations to the range of inhibitor concentration that can be explored. However, since partial inhibition is a typical feature of allosteric inhibitors, we used a method developed by our group[24] to assess if compound 25 is able to displace a low affinity active site binder, 1-ethylcyclopropane-1,2-dicarboxylic acid, that forms a highly fluorescent complex with OASS. […] This is a strong indication that compound 25 is not able to compete for binding to the active site with 1-ethylcyclopropane-1,2-dicarboxylic acid. […]

For another series, the target named is T3, OASS-B (Salmonella typhimurium, UniProt P29848).
T3 construct: made in house; host or cells: E. coli
T3 sequence (P29848 1-303): T1 sequence (P29848 1-303)
Nature of the series: Fluorescence competitive binding assay (displacement of 1-ethylcyclopropane-1,2-dicarboxylic acid). The settings on record: 200 µM 1-ECP-1,2-DCA, 190-200 µM compound, 100 mM Hepes, 1% DMSO, pH 7, 20 °C. Here is the method:
Ligand affinity was measured by direct fluorimetric titrations, monitoring the fluorescence emission spectrum of cofactor PLP upon excitation at 412 nm. 0.1–1 µM OASS was titrated by increasing concentrations of ligand in 100 mM HEPES pH 7.0, 1% DMSO, at 20 °C. The dependence of fluorescence emission intensity on the concentration of compound was fitted to a binding isotherm: I=I0+ΔI·[ligand]/Kd+[ligand] where, I is the fluorescence emission intensity at a given ligand concentration, I 0 is the fluorescence emission intensity in the absence of ligand, ΔI is the amplitude and K d is the dissociation constant. When the K d was lower than the concentration of the protein used in the assay, the dependence of the fluoresecnce emission intensity on ligand concentration was fitted to a quadratic equation that describes tight binding. The fluorescence competitive binding assay, described elsewhere, was used to evaluate whether compounds bind at the active site of the enzyme or to an allosteric site. […] Binding of a higher affinity compound to the active site displaces 1-ethylcyclopropane-1,2-dicarboxylic acid and leads to a decrease in the fluorescence emission intensity.
Figure 3. […] Fluorescence emission spectra upon excitation at 412 nm were collected in the absence and presence of 200 µM 1-ethylcyclopropane-1,2-dicarboxylic acid (1-ECP-1,2-DCA). […]

As usually defined, the Kd is a measure of binding affinity in units of concentration. As usually defined, the solubility is the concentration that dissolves in the medium under given conditions.

The structures appear in SMILES notation. In brackets after ≈: the same amount, converted by molar mass. Entries after “also recorded” stand apart in the source; their conditions may differ.

T2 sequence (P0A1E3 whole entry): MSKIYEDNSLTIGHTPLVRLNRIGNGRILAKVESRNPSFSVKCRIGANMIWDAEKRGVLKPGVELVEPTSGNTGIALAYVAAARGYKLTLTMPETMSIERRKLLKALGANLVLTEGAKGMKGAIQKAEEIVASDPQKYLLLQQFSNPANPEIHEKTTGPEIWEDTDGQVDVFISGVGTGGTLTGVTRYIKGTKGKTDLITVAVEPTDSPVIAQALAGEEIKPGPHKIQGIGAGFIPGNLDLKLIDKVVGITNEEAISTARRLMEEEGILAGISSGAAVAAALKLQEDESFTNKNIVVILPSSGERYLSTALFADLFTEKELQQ

With `CCC1(C(=O)O)CC1C(=O)O` (stereo not drawn) [1-ethylcyclopropane-1,2-dicarboxylic acid], the Kd at StOASS-B [1] was 170 µM.

Consider `Cc1ccc(C[C@]2(NS(C)(=O)=O)C[C@H]2c2ccccc2)cc1` [Compound 24, (1R,2S)-1-N-(1-(4-methylbenzyl)-2-phenylcyclopropyl)methanesulfonamide], for which the “OASS-A percent inhibition measured at saturation of inhibitor or at the highest inhibitor concentration allowed by solubility” value on StOASS-A came out at 45%. In addition, the “OASS-B percent inhibition measured at saturation of inhibitor or at the highest inhibitor concentration allowed by solubility” value on StOASS-B [2] is recorded as 50%. The “Interference with bacterial growth (MIC)” value in series [3] is recorded as “none of the synthesised compounds was able to interfere significantly with bacterial growth”. For the same compound, the solubility in series [4] was approximately 250 µM (≈ 78.9 µg/mL).

`Cc1ccc(C[C@]2(NS(=O)(=O)c3ccc(C)cc3)C[C@H]2c2ccccc2)cc1` [Compound 25, (1R,2S)-4-methyl-N-(1-(4-methylbenzyl)-2-phenylcyclopropyl)benzenesulfonamide]: the “OASS-A percent inhibition measured at saturation of inhibitor or at the highest inhibitor concentration allowed by solubility” value on StOASS-A stood at 39%. On StOASS-B [2], the “OASS-B percent inhibition measured at saturation of inhibitor or at the highest inhibitor concentration allowed by solubility” value stood at 35%. Besides, in series [4], the solubility is approximately 50 µM (≈ 19.6 µg/mL). For the same compound, the “Displacement of 1-ethylcyclopropane-1,2-dicarboxylic acid from OASS-B” value at OASS-B is on record as “unable to displace the compound up to an equimolar concentration of about 200 μM; also recorded: does not change the emission spectrum”.
